Consider one compound from patent US11911396B2, “Use of compound in preparation of drug for treating cerebral small vessel disease” (GUANGZHOU CELLPROTEK PHARMACEUTICAL CO., LTD, priority 2017, dated 2024).

Experiment [1] has as its system Iba1. The experiment is described as follows: Immunofluorescence of Iba1 in prefrontal cortex brain tissue, acute hypobaric hypoxia model. The experiment is classed as in vivo, cynomolgus monkeys. Conditions: FIG. 5. The text has this: FIG. 5. […] A. Immunofluorescence imaging of CD163 and Iba-1 in the brain tissue of cynomolgus monkeys. B. Statistics of relative fluorescence intensity of CD163 and Iba-1. C. Correlation analysis of relative fluorescence intensity of CD163 and Iba-1. NN: Normobaric Normoxia group; HH: Hypobaric Hypoxia group; HH+Triol: Hypobaric Hypoxia with Triol administration group; HH+PROG: Hypobaric Hypoxia with progesterone administration group. One-way ANOVA analysis and Dunnutt's t test were used to perform statistical tests, and in the latter each group was compared with the HH group, ***, p<0.001.
The thickness of paraffin sections was 5 μm. For fresh paraffin sections, the sections were dried at 37° C. overnight and then dried at 55° C. for 30 minutes. The sections were quickly placed in xylene for dewaxing. After fully dewaxing with xylene for 10 min for 3 times, absolute ethanol-95% ethanol-90% ethanol-80% ethanol-70% ethanol-50% ethanol-ddH2O were successively used for gradient rehydration. After rehydration, the sections were placed in EDTA antigen repair solution for microwave high temperature repair. After the repair was completed, it was allowed naturally cool down to room temperature. […] NIS-Elements Analysis software was used to analyze the fluorescence intensity of confocal images, which was then normalized with the fluorescence intensity per unit area according to the built-in scale. […]

Experiment [2] has as its system IL-6. The experiment is described as follows: Western blot of IL-6 in prefrontal cortex brain tissue, acute hypobaric hypoxia model. Conditions: FIGS. 3A and 3B. The experiment is classed as in vivo, cynomolgus monkeys. The text has this: FIG. 3. […] A. Protein expression of inflammatory factors IL-6, IL-1β and TNF-α in the brain tissue of the prefrontal cortex of cynomolgus monkeys; B. Statistics of protein relative gray scan values. NN: Normobaric Normoxia group (N=3); HH: Hypobaric Hypoxia group (N=3); HH+Triol: Hypobaric Hypoxia with Triol administration group (N=3); HH+PROG: Hypobaric Hypoxia with control drug administration group (N=3). The gray value was obtained by scanning with Image Lab software, and the relative value was obtained after normalizing with α-Tubulin. One-way ANOVA analysis and Dunnutt's t test were used to perform statistical tests, and in the latter each group was compared with the HH group, *, p<0.05; **, p<0.01.
1) Preparation of protein samples (see the instructions of M-PER protein lysate): After the cells had been processed for the specified time, the medium was aspirated and then washed with 4° C. pre-chilled PBS (0.01M pH7.2˜7.3) for 3 times. […] 2) BCA protein quantification (see the instructions of BCA protein quantification kit): corresponding components were added to a 96-well detection plate by the ratio of quantification reagent A solution:B solution:ddH2O:protein=100:2:7.5:5, and albumin standards diluted in gradient concentration were added to draw a standard curve. […] After the reaction, the absorbance of each well at a wavelength of 562 nm was detected using a microplate reader. […]

As for `C[C@@]12CCCC1C1C[C@@H](O)[C@@]3(O)C[C@@H](O)CC[C@]3(C)C1CC2` (stereo partly drawn) [Triol, 5α-androst-3β,5,6β-triol], the Iba1 expression result in experiment [1] is “down-regulation”. For the same compound, in experiment [2], the “expression level of IL-6” value is “significantly reduced”.
